System: SIN3A 3′UTR
Test: Dual-luciferase reporter assay (psiCHECK-2 vector with SIN3A 3′UTR) in HEK293T cells
Assay type: cell-based
Conditions: HEK293T cells co-transfected with psiCHECK-2 and increasing concentrations of mimic; vs Scr
Text: FIG. 5: miR-138 regulates SIN3A in a dose-dependent and site-specific manner. HEK293T cells were co-transfected with the psiCHECK-2 vector (containing the SIN3A 3′UTR) and increasing concentrations of Scr or miR-138 mimic (Scr: non-targeting control oligonucleotide). To test site-specificity, the two predicted binding sites of miR-138 on SIN3A 3′UTR cloned in the psiCHECK-2 vector were mutated and the experiment repeated. Error bars indicate mean±SE; (n=4, 3 replicates each); *P<0.01, relative to Scr.
The 3′UTR of SIN3A was cloned into the Xho1/Not1 restriction enzyme sites in the 3′UTR of Renilla luciferase in the psiCHECK™-2 vector (Promega). HEK293T cells were cotransfected with 20 ng of psiCHECK-2 vector and different concentrations of miR-138 mimic. The Lipofectamine™ RNAiMAX (Invitrogen) reverse transfection protocol was used as described above. The miR-138 binding sites on the SIN3A 3′UTR were mutated using the site-directed, ligase-independent mutagenesis (SLIM) protocol (Chiu, J., Tillett, D., Dawes, I. W. & March, P. E. Site-directed, Ligase-Independent Mutagenesis (SLIM) for highly efficient mutagenesis of plasmids greater than 8 kb. J Microbiol. Methods 73, 195-198 (2008); Chiu, J., March, P. E., Lee, R. & Tillett, D. Site-directed, Ligase-Independent Mutagenesis (SLIM): a single-tube methodology approaching 100% efficiency in 4 h. Nucleic Acids Res. 32, (2004)). […]

## miR-138 mimic: synthetic modified RNA duplex, sense SEQ ID NO: 4, antisense SEQ ID NO: 5, showing miR-138-like activity
  SIN3A expression (Renilla luciferase with SIN3A 3′UTR, normalized to firefly luciferase): repressed SIN3A expression in a dose-dependent manner

Reference: patent US20150045410A1, “METHOD OF REGULATING CFTR EXPRESSION AND PROCESSING” (University of Iowa Research Foundation, priority 2012, published 2015)
